Inconclusive results and toxic doses are left out.
Tested on: P388 leukemia ip, CD2F1 mice, survival T/C
Test: NCI In Vivo Anticancer Drug Screen. Data for tumor model P388 Leukemia (intraperitoneal) in CD2F1 (CDF1) mice
Settings: endpoint: median survival time, higher = longer survival
Summary of the method: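 Mice carrying the transplanted tumor received test compound or vehicle. Survival was recorded in each group, and the value is the treated-group measurement divided by that of the vehicle-treated control group.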

O=C1C=CC(=O)c2c(O)ccc(O)c21
T/C (dose: 0.2 mg/kg/injection, schedule: Q01DX005 (ip), vehicle: saline with Tween-80): 102 % of control
T/C (dose: 0.4 mg/kg/injection, schedule: Q01DX005 (ip), vehicle: saline with Tween-80): 97 % of control
T/C (dose: 0.8 mg/kg/injection, schedule: Q01DX005 (ip), vehicle: saline with Tween-80): 98 % of control
T/C (dose: 1.0 mg/kg/injection, schedule: Q04DX003 (ip), vehicle: saline with Tween-80): 100 % of control
T/C (dose: 2.0 mg/kg/injection, schedule: Q04DX003 (ip), vehicle: saline with Tween-80): 104 % of control
T/C (dose: 4.0 mg/kg/injection, schedule: Q04DX003 (ip), vehicle: saline with Tween-80): 100 % of control

C[N+](C)(CC(=O)Nc1ccc(Cl)c(Cl)c1)CC(=O)c1ccc(Cl)c(Cl)c1
T/C (dose: 25.0 mg/kg/injection, schedule: Q04DX003 (ip), vehicle: saline with Tween-80): 100 % of control
T/C (dose: 50.0 mg/kg/injection, schedule: Q04DX003 (ip), vehicle: saline with Tween-80): 100 % of control
T/C (dose: 100.0 mg/kg/injection, schedule: Q04DX003 (ip), vehicle: saline with Tween-80): 90 % of control

CCCCCCCCCCCCCCCCCC(=O)CS(C)(=O)=O
T/C (dose: 50.0 mg/kg/injection, schedule: Q01DX009 (ip), vehicle: suspension in saline): 100 % of control
T/C (dose: 100.0 mg/kg/injection, schedule: Q01DX009 (ip), vehicle: suspension in saline): 100 % of control
T/C (dose: 200.0 mg/kg/injection, schedule: Q01DX009 (ip), vehicle: suspension in saline): 97 % of control

CCCCN(CCCC)S(=O)(=O)N1CCCCC1
T/C (dose: 50.0 mg/kg/injection, schedule: Q04DX002 (ip), vehicle: saline): 105 % of control
T/C (dose: 100.0 mg/kg/injection, schedule: Q04DX002 (ip), vehicle: saline): 98 % of control
T/C (dose: 200.0 mg/kg/injection, schedule: Q04DX002 (ip), vehicle: saline): 96 % of control
T/C (dose: 400.0 mg/kg/injection, schedule: Q04DX002 (ip), vehicle: saline): 100 % of control

OC(CC1CCCCN1)c1cc(C(F)(F)F)nc2c(C(F)(F)F)cccc12 (stereo not drawn)
T/C (dose: 12.5 mg/kg/injection, schedule: Q01DX009 (ip), vehicle: saline with Tween-80): 101 % of control
T/C (dose: 25.0 mg/kg/injection, schedule: Q01DX009 (ip), vehicle: saline with Tween-80): 100 % of control
T/C (dose: 50.0 mg/kg/injection, schedule: Q01DX009 (ip), vehicle: saline with Tween-80): 108 % of control

O=C1NCCN1c1cccc([N+](=O)[O-])c1
T/C (dose: 12.5 mg/kg/injection, schedule: Q01DX009 (ip), vehicle: saline sonified): 90 % of control
T/C (dose: 25.0 mg/kg/injection, schedule: Q01DX009 (ip), vehicle: saline sonified): 100 % of control
T/C (dose: 50.0 mg/kg/injection, schedule: Q01DX009 (ip), vehicle: saline sonified): 90 % of control

Cc1cc(N=Nc2ccc(-c3ccc(N=Nc4ccc(O)c(C(=O)O)c4)cc3)cc2)c(N)c(N=Nc2ccc(C(=O)Nc3ccc(S(=O)(=O)O)cc3)cc2)c1N
T/C (dose: 6.25 mg/kg/injection, schedule: Q01DX005 (ip), vehicle: saline with Tween-80): 100 % of control
T/C (dose: 12.5 mg/kg/injection, schedule: Q01DX005 (ip), vehicle: saline with Tween-80): 101 % of control
T/C (dose: 25.0 mg/kg/injection, schedule: Q01DX005 (ip), vehicle: saline with Tween-80): 101 % of control

O=C1c2c(O)ccc(O)c2C(=O)c2c(NCCN(CCO)Cc3ccccc3)ccc(NCCN(CCO)Cc3ccccc3)c21
T/C (dose: 0.62 mg/kg/injection, schedule: Q01DX009 (ip), vehicle: saline with Tween-80): 118 % of control
T/C (dose: 1.25 mg/kg/injection, schedule: Q01DX009 (ip), vehicle: saline with Tween-80): 106 % of control
T/C (dose: 2.5 mg/kg/injection, schedule: Q01DX009 (ip), vehicle: saline with Tween-80): 97 % of control
T/C (dose: 5.0 mg/kg/injection, schedule: Q01DX009 (ip), vehicle: saline with Tween-80): 109 % of control
T/C (dose: 10.0 mg/kg/injection, schedule: Q01DX009 (ip), vehicle: saline with Tween-80): 86 % of control
T/C (dose: 20.0 mg/kg/injection, schedule: Q01DX009 (ip), vehicle: saline with Tween-80): 103 % of control
T/C (dose: 40.0 mg/kg/injection, schedule: Q01DX009 (ip), vehicle: distilled water + Tween-80): 101 % of control
T/C (dose: 40.0 mg/kg/injection, schedule: Q01DX009 (ip), vehicle: saline with Tween-80): 103 % of control
T/C (dose: 80.0 mg/kg/injection, schedule: Q01DX009 (ip), vehicle: distilled water + Tween-80): 123 % of control
T/C (dose: 80.0 mg/kg/injection, schedule: Q01DX009 (ip), vehicle: saline with Tween-80): 106 % of control
T/C (dose: 160.0 mg/kg/injection, schedule: Q01DX009 (ip), vehicle: distilled water + Tween-80): 166 % of control
T/C (dose: 160.0 mg/kg/injection, schedule: Q01DX009 (ip), vehicle: saline with Tween-80): 163 % of control
T/C (dose: 320.0 mg/kg/injection, schedule: Q01DX009 (ip), vehicle: distilled water + Tween-80): 194 % of control
